Patent US20160136071A1, “Topical bimatoprost for promoting hair growth containing formulations” (priority 2013, published 2016)

Tests used:
[1] = powder, cited from earlier work
[2] = test system: lashes and hair around the eyes; assay: Study of lashes and hair around the eyes of glaucoma patients administering bimatoprost in only one eye (slit lamp biomicroscope); format: in vivo, human; settings: one drop daily of 0.03% ophthalmic solution to one eye
Description: A study is initiated to systematically evaluate the appearance of lashes and hair around the eyes of patients who are administering bimatoprost in only one eye. The study involves 10 subjects, 5 male, 5 female, average age 70 years, (ranging from 50-94 years). All patients have glaucoma. Each subject is treated daily by the topical application of one drop of bimatoprost at a dosage of 1.5 µg/ml/eye/day (0.03%, by weight, ophthalmic solution, sold under the names Lumigan® and Latisse® by Allergan, Irvine, Calif., U.S.A.) to the region of one eye by instilling the drop onto the surface of the eye. The region of the fellow control eye is not treated with bimatoprost and served as a control.
In the course of treatment with eye drops, there is typically spontaneous tearing, and excess fluid from the drops and associated tears gathers at the lid margins. In the course of wiping the drug containing fluid from the lid margins and adjacent lid, a thin film of the fluid is routinely spread to contact the adjacent skin of the lid area.
The study is limited to subjects who have administered bimatoprost to one eye for more than 3 months. The mean duration of exposure to bimatoprost prior to assessing the parameter of lash growth between the control and study eye is 129 days (range 90-254 days). Observations are made under high magnification at the slit lamp biomicroscope. Documentation of differences between the control and treatment areas is accomplished using a camera specially adapted for use with the slit lamp biomicroscope. The results of the observations are as follows: Length of lashes: Increased length of eyelashes is regularly observed on the side treated with bimatoprost. The difference in length varies from approximately 10% to as much as 30%. […] In areas where there are a large number of lashes in the control eye, the increased number of lashes in the bimatoprost-treated eye gave the lashes on the treated side a more thickly matted overall appearance. […] These long, thick lash-like hairs were present in the central portion of the lids of several patients in a linear arrangement just above the lash line. Hairs are present at similar locations in the control eyes but are by contrast thinner or more fine in appearance, have less luster and pigment and are more flat against the skin of the lid typical of vellus or intermediate hairs. In several patients, lash-like terminal hairs grow luxuriantly in the medial canthal area in the treated eye. In the corresponding control eye, vellus hairs are seen at the same location. Lash-like hairs are also present in the lateral canthal area of the treated eye but not the control eye in several subjects. […]

[3] = test system: lashes and adjacent hairs; assay: Daily-practice observation of lashes in glaucoma patients treated with bimatoprost in one eye; format: in vivo, human
Source text: In the course of treating patients having glaucoma, treatment may only be appropriate in one eye. […] The lash appearance on the lids of the treated eye would have appeared quite attractive if it represented a bilateral phenomenon. Because of its asymmetric nature, the long lashes on one side could be construed as disturbing from a cosmetic standpoint. Because of the very unusual appearance a systematic examination of other patients who were taking bimatoprost in only one eye was made. It soon became apparent that this altered appearance was not an isolated finding. […] Definite differences could be identified to varying degrees in the lashes and adjacent hairs of all patients who were taking the drug on a unilateral basis for longer than 6 months. These findings were totally unexpected and surprising.
The changes in the lashes after topical application of bimatoprost were apparent on gross inspection in several patients once attention was focused on the issue. In those with light colored hair and lashes, the differences were only seen easily with the aid of the high magnification and lighting capabilities of the slit lamp biomicroscope. In the course of a glaucoma follow up examination, attention is generally immediately focused on the eye itself. […]

SMILES: CCNC(=O)CCC/C=C\C[C@@H]1[C@@H](/C=C/[C@@H](O)CCc2ccccc2)[C@H](O)C[C@@H]1O [Bimatoprost, (Z)-7-[(1R,2R,3R,5S)-3,5Dihydroxy-2-[(1E,3S)-3-hydroxy-5-phenyl-1-pentenyl]cyclopentyl]-5-N-ethylheptenamide]
- solubility in ethyl alcohol ([1]; ethyl alcohol): very soluble
- solubility in methyl alcohol ([1]; methyl alcohol): very soluble
- solubility in water ([1]; water): slightly soluble
- Growth of vellus hair on lids, treated vs control eye ([2]; areas below and lateral to the lower lid): increased in number, appear more robust and are much longer and thicker
- Perpendicular angulation of hairs, treated vs control eye ([2]; lash-like hairs above lash line and in canthal areas): leave the surface of the skin at a more acute angle
- Number of lashes, treated vs control eye ([2]; mean exposure 129 days, fellow eye untreated): Increased numbers of lashes
- Auxiliary lash-like hair growth, treated vs control eye ([2]; several patients): apparent increase in lash-like hair in transitional areas
- Lash appearance in treated eye vs non-treated eye ([3]; glaucoma patient treated in one eye): longer, thicker and fuller in the treated eye than in the non-treated eye
- Hypertrichosis in the region of treatment ([3]; patients treated in or around the eye): regularly develop hypertrichosis
